Results on one compound are retold here after the NIST ThermoML archive (doi:10.1016/j.jct.2015.08.019).

± gives the expanded uncertainty stated by the source.

The series is described as follows: excess molar enthalpy (molar enthalpy of mixing); xn = mol fraction of the nth substance listed. The settings on record: 473 K, 101.3 kPa, Crystal, Calvet calorimetry.

With `O=[N+]([O-])[O-].[Tl+]` [thallium nitrate] + O=[N+]([O-])[O-].[Cs+], the excess molar enthalpy is, setting by setting: (x2 = 0.25) 0.299 ± 0.0621 kcal/mol; (x2 = 0.5) 0.343 ± 0.0717 kcal/mol; (x2 = 0.75) 0.248 ± 0.0526 kcal/mol.
